Common to all, as to assay type: cell-based
For experiment [1], the system named is LPS-stimulated RAW 264.7 macrophage murine cells. Kind of experiment: RAW 264.7 cell-cycle distribution, PI flow cytometry. As to conditions: for effect on cell-cycle arrest induced by LPS: 72 h of treatment. The text has this: Since the anti-inflammatory effect can be related to the ability to change the inflammatory processes induced by LPS in RAW 264.7 cells, including monocyte/macrophage cell differentiation and cell-cycle arrest,[22] we analyzed the cell-cycle distribution in these cells in response to LPS and compounds 16 and 21. The two compounds with the highest antiproliferative and important NO inhibitory effects were selected for this assay. For this purpose, flow cytometry by propidium iodide (PI) staining was used to measure DNA ploidy as well as the distribution of cells in every phase of the cell cycle (Figure S2).
A stock solution was frozen and stored at […]. Before the experiments, this solution was diluted in cell-culture medium to the adequate concentrations for each experiment. For the antiproliferative assay in all cell lines, we determined the concentrations of compounds required for 20, 50, and 80% of inhibition cell growth, IC20, IC50, and IC80, concentrations, respectively, to analyze the complete range of cytotoxicity and to determine the graduated or acute response to these compounds. For nitrite assay, subcytotoxic concentrations (3/4IC50, 1/2IC50, and 1/4IC50), were used to ensure that the NO inhibitory potential was not due to a possible cytotoxic effect. The concentrations of 3/4IC50, 1/2IC50, and 1/4IC50 were used for the cell-cycle analysis. All experiments were measured and compared with control (untreated cells after 24, 48, or 72 h of treatment.)
Cellular subpopulations, with different DNA contents, were visualized, using a fluorescence-activated cell sorter (FACS) at 488 nm in an Epics XL flow cytometer (Coulter Corporation, Hialeah, FL, USA). Changes in DNA levels are characteristic of cell-cycle arrest and cell differentiation.[36] […] Several controls were analyzed in parallel. […] Data were analyzed to determine the percentage of cells in each cell-cycle phase (G0/G1, S, and G2/M).
In general terms: Flow cytometry measures light scatter and fluorescence of single cells or particles in a stream.

Experiment [2] deals with B16-F10 murine melanoma cells. The experiment in a line: MTT cancer cell proliferation assay, B16-F10. The conditions noted are these: Mus musculus, B16-F10, 72 h, MTT; for IC50: read-out: IC50; for IC20: read-out: IC20. The protocol:
(§1) The five newly synthesized diterpenoids were evaluated for their cytotoxic effects against three selected tumor cell lines, B16-F10 murine melanoma cells, HT29 human colon adenocarcinoma cells, and HepG2 human hepatocarcinoma cells at increasing concentrations (0–100 μg/mL). After 72 h of treatment, cell viability was determined by an MTT assay, where the tetrazolium dye was transformed into formazan in the mitochondria of viable cells, its absorbance measured at 570 nm and expressed as a percentage with respect to untreated control cells (S3 Figure.). The concentrations required for 20, 50, and for 80% growth inhibition (IC20, IC50, and IC80) were also determined for each compound (Table 2).
(§2) A stock solution was frozen and stored at […]. Before the experiments, this solution was diluted in cell-culture medium to the adequate concentrations for each experiment. […] For nitrite assay, subcytotoxic concentrations (3/4IC50, 1/2IC50, and 1/4IC50), were used to ensure that the NO inhibitory potential was not due to a possible cytotoxic effect. The concentrations of 3/4IC50, 1/2IC50, and 1/4IC50 were used for the cell-cycle analysis. All experiments were measured and compared with control (untreated cells after 24, 48, or 72 h of treatment.)
(§3) Human colorectal adenocarcinoma cell line HT29 (ECACC no. 9172201; ATCC no. HTB-38), human hepatocarcinome cell line HepG2 (ECACC no. 85011430), mouse melanoma cells B16-F10 (ATCC no. CRL-6475), and murine monocyte/macrophage-like RAW 264.7 cell line (ATCC no, TIB-71) were cultured in DMEM (Dulbecco’s modified Eagle’s medium) supplemented with 2 mM glutamine, 10% heat-inactivated FCS (fetal calf serum), 10 000 units/mL of penicillin and 10 mg/mL of streptomycin, (for all cancer cell lines), 50 μg/mL of gentamicin (only for RAW 264.7 cell line), and incubated at 37 °C, in an atmosphere of 5% CO2 and 95% humidity. The culture media were changed every 48 h, and the confluent cultures were separated with a trypsin solution (0.25% EDTA). In all experiments, monolayer cells were grown to 80–90% confluence, in sterile cell culture flasks. All cell lines used were purchased from the cell bank of the University of Granada, Spain.
(§4) The cytotoxicity assay was performed by the MTT (3-(4,5-dimethylthiazol-2-yl)-2,5-diphenyltetrazolium bromide) method.[21] To quantify the cytotoxicity of compounds, the fresh and suspended cells were seeded in 96-well plates to a volume of 100 μL at 6.0 × 10^3 cells/mL for HT29 and RAW 264.7 cell lines, at 5.0 × 10^3 cells/mL for B16-F10 cells and 15.0 × 10^3 for Hep G2. Then, cells were incubated to adhere over 24 h at 37 °C with 5% CO2. All tested compounds were prepared in fresh growth medium. After 24 h, an additional 100 μL of medium with the corresponding concentrations of products (only medium in the control wells) was added to the corresponding wells, at various final concentrations (0–100 μg/mL). Finally, after 72 h of incubation at 37 °C with 5% CO2, the medium with the compounds were removed and 100 μL of MTT solution (0.5 mg/mL) in 50% of PBS 50% of medium was added to each well. After 1.5 h of incubation, formazan was resuspended in 100 μL of DMSO, and each concentration was tested in triplicate. Relative cell viability, with respect to untreated control cells, was measured by absorbance at 570 nm on an ELISA plate reader (Tecan Sunrise MR20-301, TECAN, Austria).
(§5) Cytotoxicity experimental data were fitted to a sigmoidal function (y = ymax/(x/a)^−b) by nonlinear regression. […] These analyses were performed using SigmaPlot 12.5 software. Similar analyses were performed to obtain the IC50 of NO production. All data shown here are representative of at least two independent experiments performed in triplicate. All quantitative data were summarized as the mean ± standard deviation (SD).

Experiment [3] relates to HT29 human colon adenocarcinoma cells. The experiment in a line: MTT cancer cell proliferation assay, HT29. The conditions noted are these: Homo sapiens, HT29, 72 h, MTT; for IC50: HT-29, 72 h, read-out: IC50; for IC80 / IC20: HT-29; for IC20: read-out: IC20. The protocol:
as §1, §2, §3, §4, §5

Usually IC50 stands for the concentration that gives 50% inhibition. As usually defined, the IC80 is the concentration needed for an effect of 80%. By IC20 is commonly meant the point of the concentration-response curve where the effect stands at 20%.

The structures appear in SMILES notation.

For `COC(=O)[C@]1(C)CCC[C@@]2(C)[C@H]1CC=C1C(C)=C(C(C)C)C(=O)C[C@@H]12` [Compound 16, (1R,4aR,10aR)-Methyl 7-isopropyl-1,4a,8-trimethyl-6-oxo-1,2,3,4,4a,4b,5,6,10,10a-decahydrophenanthrene-1-carboxylate], the “effect on cell-cycle arrest induced by LPS” value in experiment [1] was “could revert the cell-cycle arrest induced by LPS”. The “proportion of cells in the S phase” value in experiment [1] (LPS + compound, 72 h, 1/4IC50 to 3/4IC50, with respect to positive control) turned out to be 69%. In experiment [2], the IC50 is 22.2 ± 1.16 µM, it took 35.8 ± 3.35 µM to reach the 80% level (IC80) and the IC20 came to 14.2 ± 0.19 µM. Also, in experiment [3], the concentration for half-maximal inhibition (IC50) was 33.4 ± 2.16 µM, it took 55 ± 0.93 µM to reach the 80% level (IC80) and the concentration for an effect of 20% (IC20) was found to be 21.4 ± 3.09 µM.

For the compound `COC(=O)[C@]1(C)CCC[C@]2(C)c3cc(O)c(C=O)c(C)c3CC[C@@H]12` [Compound 21, (1R,4aS,10aR)-Methyl 7-formyl-6-hydroxy-1,4a,8-trimethyl-1,2,3,4,4a,9,10,10a-octahydrophenanthrene-1-carboxylate], the “effect on cell-cycle arrest induced by LPS” value in experiment [1] is “could revert the cell-cycle arrest induced by LPS”. Besides, in experiment [2], the half-inhibitory concentration (IC50) was 7.72 ± 3.92 µM, the 80% effect level (IC80) was put at 20.1 ± 7.72 µM and the IC20 came to 3.18 ± 2.3 µM. In addition, in experiment [3], the IC50 stood at 20.1 ± 0.61 µM, it took 30.6 ± 0.81 µM to reach the 80% level (IC80) and the concentration for an effect of 20% (IC20) turned out to be 13.5 ± 0.55 µM.

The record behind these values is article PMC9623576, “Semisynthesis and Evaluation of Anti-Inflammatory Activity of the Cassane-Type Diterpenoid Taepeenin F and of Some Synthetic Intermediates” (Journal of Natural Products, 2022).
